Experimental findings from patent publication US20140349852A1, “METABOLIC CONTROL OF SEED GERMINATION” (Oregon State University, priority 2010, published 2014) are described below.

One data set deals with AGE:NCED6 seeds. Put plainly: Germination test of imbibed AGE:NCED6 seeds. The format is in vivo, Arabidopsis thaliana. The note with it: 10 μM fluridone co-applied with Intrepid®2F. As to the method: Briefly, for the induction of AGE:NCED6 plants at ˜10 rosette stages, diluted (×10,000), Intrepid®2F (Dow AgroSciences) solution which contained 62 μM MOF as an active ingredient was applied directly to the soil in pots containing Arabidopsis seedlings by drenching. Seedling were harvested two days after induction and frozen at −80° C. before RNA extraction. For the induction experiments in imbibed seeds, seeds were placed in 9 cm plastic petri dishes on two layers of filter paper (No. 2, Whatman Inc) moistened with 3.5 mL water or Intrepid®2F (×10,000) and incubated at 4° C. for 3 days and at 22° C. for 29 h (gene expression analysis) or 5 days (germination tests).

Data set [1] concerns AGE:NCED6 transgenic Camelina seeds. Put plainly: Germination test of Camelina AGE:NCED6 seeds. Format: in vivo, Camelina sativa. More on the design: recovery of germination of MOF-induced AGE:NCED6 Camelina seeds: dose or concentration left out as unconfirmed. As to the method:
(§1) For the induction experiment in imbibed seeds, seeds were placed in 9 cm plastic petri dishes on two layers of filter paper (No. 2, Whatman Inc.) moistened with 4 mL water or (122.6 μM or 2×10,000) MOF or 1 mM ABA and incubated at 4° C. for overnight and at 22° C. for 72 h (germination tests and gene expression analysis).
To determine whether there was an effect of the AGE: NCED6 expression vector on the ability of transgenic seeds to undergo germination, wild-type and homozygous seeds from transgenic plant lines, 16-12, 17-17, and 13-12, were imbibed for three days in the presence or absence of MOF. […] Control seeds of non-transgenic plants were shown the same in the presence or absence of MOF. Germination of Camelina seeds is observed initially as ruptured testa followed by emergence of the […] when the radicle emerges.

The subject of data set [2] is control seeds of non-transgenic plants. Put plainly: Germination test of wild-type Camelina seeds. Format: in vivo, Camelina sativa. To be noted: presence or absence of MOF. As to the method:
as §1

In data set [3] the test system is Arabidopsis NCED6 expression in AGE:NCED6 Camelina seeds. The data set is described as follows: Real time PCR analysis of Arabidopsis NCED6 in Camelina seeds. Format: in vivo, Camelina sativa. The note with it: imbibed three days in the presence or absence of MOF. (In general: In qPCR the cycle at which signal appears reflects the starting amount.)
The test system of data set [4] is ABA levels in AGE:NCED6 Camelina seeds. The data set is described as follows: ABA quantification in Camelina seeds by mass spectrometry. The format is in vivo, Camelina sativa. The note with it: after application of MOF. How it is done: ABA was quantified by a previously published method (44), but was modified to ABA. Briefly, samples were ground in liquid nitrogen and internal standards ([…] of 2.5 mM) were added. Samples were extracted with 1.5 mL acetonitrile/methanol (1:1 v:v). After lyophilization, samples were resolubilized in […] of 50% MeOH. For LC separation, two monolithic C18 columns (Onyx, 4.6 mm×100 mm, Phenomenex) with a guard cartridge were used flowing at 1 mL min^−1. […] For quantitation, a series of standards were prepared containing different concentrations of ABA mixed with D-labeled ABA (250 μmol/sample). […] The peak areas of endogenous ABA were normalized with the corresponding internal standard and then calculated according to the standard curve.
To examine whether ABA levels in the AGE: NCED6 seeds were affected by gene induction, ABA in wild-type and the AGE: NCED6 seeds was quantified by mass spectrometry, as described previously. […]

Data set [5] relates to AGE:CYP707A2 transgenic Camelina seeds. The data set is described as follows: Germination test of Camelina AGE:CYP707A2 seeds. Format: in vivo, Camelina sativa. The note with it: imbibed three days in the presence of MOF or MOF+ABA (1 mM ABA). As to the method:
as §1
To determine whether there was an effect of AGE: CYP707A2 transgenic seeds on germination during imbibitions, wild-type and homozygous seeds from transgenic plant lines, 14-3, 3-6, and 2-1, were imbibed for three days in the presence of MOF or in the presence of MOF+ABA.

Take fluridone: the “recovery of germination of ligand-suppressed AGE:NCED6 seeds” value with AGE:NCED6 seeds was “fully rescued”. Also, the “recovery of germination of MOF-induced AGE:NCED6 Camelina seeds” value in data set [1] (co-application of MOF and fluridone, data not shown) was “fully rescued”.

Regarding `COc1cccc(C(=O)NN(C(=O)c2cc(C)cc(C)c2)C(C)(C)C)c1C` [MOF, methoxyfenozide], the “inhibition of germination (endosperm rupture and radicle protrusion), line 13-12” value in data set [1] (AGE:NCED6 Camelina line 13-12, MOF, three days) worked out at 95%. In addition, in data set [1] (AGE:NCED6 Camelina line 16-12, MOF, three days), the “inhibition of germination (endosperm rupture and radicle protrusion), line 16-12” value is recorded as 89%. Besides, in data set [1] (AGE:NCED6 Camelina line 17-17, MOF, three days), the “inhibition of germination (endosperm rupture and radicle protrusion), line 17-17” value came out at 90%. Also, in data set [1] (imbibed three days in the presence of MOF (122.6 μM)), the “germination of AGE:NCED6 Camelina seeds” value is listed as “inhibited dramatically”. The “germination of control seeds of non-transgenic Camelina plants” value in data set [2] is recorded as “the same”. Further, the “Arabidopsis NCED6 expression in Camelina seeds by real time PCR” value in data set [3] is listed as “did not detect”. Also, the “ABA in AGE:NCED6 Camelina seeds” value in data set [4] was “remarkable increase in ABA”. In addition, in data set [5], the “germination of AGE:CYP707A2 Camelina seeds, line 2-1” value amounted to 95%; the “germination of AGE:CYP707A2 Camelina seeds, line 3-6” value was found to be 98%; the “germination of AGE:CYP707A2 Camelina seeds, line 14-3” value is recorded as 99%.
